Measurements from publication PMC9169222, “Impedance-Based Phenotypic Readout of Transporter Function: A Case for Glutamate Transporters” (Frontiers in Pharmacology, 2022).
Where a name gives a salt, the structure may show the parent alone.

Columns and labels:
[1] = target: T1, EAAT1 / mGluR2 (JumpIn-EAAT1-mGluR2 cells) (Homo sapiens, UniProt P43003); assay: Impedance-based TRACT assay (xCELLigence) on JumpIn-EAAT1-mGluR2 cells; type: cell-based
T1 construct: FLAG-tag (N); expressed in transfected cells; host or cells: Jump In T-REx HEK 293 (JumpIn-EAAT1), transiently transfected with mGluR2 cDNA
T1 sequence (P43003 whole entry, the tested form may be a part): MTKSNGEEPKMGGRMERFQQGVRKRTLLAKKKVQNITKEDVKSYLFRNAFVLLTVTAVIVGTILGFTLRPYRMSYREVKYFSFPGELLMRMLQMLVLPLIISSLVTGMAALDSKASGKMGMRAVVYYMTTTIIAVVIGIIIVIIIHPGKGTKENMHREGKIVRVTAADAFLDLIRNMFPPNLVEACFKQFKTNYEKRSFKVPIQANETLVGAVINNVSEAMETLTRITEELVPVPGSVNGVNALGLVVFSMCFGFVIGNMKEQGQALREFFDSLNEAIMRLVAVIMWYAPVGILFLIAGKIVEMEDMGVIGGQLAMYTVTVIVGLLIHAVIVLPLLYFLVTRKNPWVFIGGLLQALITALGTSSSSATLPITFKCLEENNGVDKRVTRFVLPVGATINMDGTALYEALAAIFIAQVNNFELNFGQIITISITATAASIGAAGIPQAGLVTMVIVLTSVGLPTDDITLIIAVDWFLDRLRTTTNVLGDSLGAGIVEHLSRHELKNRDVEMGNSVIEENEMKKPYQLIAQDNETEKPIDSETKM

[2] = system: EAAT1 / mGluR2 (JumpIn-EAAT1-mGluR2 cells); assay: as above; type: cell-based, human; conditions: for Substrate pEC50 ± SEM (AUC = 0–15 min): JumpIn-EAAT1-mGluR2, +dox
[3] = target: T2, EAAT5 (JumpIn-EAAT5 cells) (Homo sapiens, UniProt O00341); assay: Impedance-based phenotypic assay on JumpIn-EAAT5 cells; type: cell-based; conditions: JumpIn-EAAT5, 1 mM L-glu, p = 0.0032
T2 construct: expressed in transfected cells; host or cells: Jump In T-REx HEK 293
T2 sequence (O00341 whole entry): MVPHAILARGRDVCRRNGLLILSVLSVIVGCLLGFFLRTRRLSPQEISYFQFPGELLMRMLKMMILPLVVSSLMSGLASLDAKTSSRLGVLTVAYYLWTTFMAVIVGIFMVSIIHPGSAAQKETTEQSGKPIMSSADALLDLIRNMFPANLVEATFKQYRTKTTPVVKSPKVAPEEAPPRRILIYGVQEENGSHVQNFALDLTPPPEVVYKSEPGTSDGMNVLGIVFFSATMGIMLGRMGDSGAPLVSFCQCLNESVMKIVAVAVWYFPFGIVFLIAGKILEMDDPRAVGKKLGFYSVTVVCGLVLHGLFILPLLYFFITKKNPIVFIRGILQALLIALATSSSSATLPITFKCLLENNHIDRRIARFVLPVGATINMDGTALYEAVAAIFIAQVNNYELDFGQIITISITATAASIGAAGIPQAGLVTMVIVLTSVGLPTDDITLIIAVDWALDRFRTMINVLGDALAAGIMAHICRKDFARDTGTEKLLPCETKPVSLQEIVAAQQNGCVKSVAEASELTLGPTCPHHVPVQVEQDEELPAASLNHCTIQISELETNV
Experimental: Label-free whole-cell assays, based on cell-induced changes in impedance, were performed using the xCELLigence real-time cell analyzer (RTCA) system (ACEA Biosciences, San Diego, CA, United States) as described previously ([Vlachodimou et al., 2019]; [Sijben et al., 2021a], [2021b]). In short, cells are cultured in medium on gold-plated electrodes in microwell E-plates. Per well impedance is continuously measured at 10 kHz and is converted to the unitless parameter Cell Index (CI) by the following formula: CI=(Zi−Z0)Ω/15Ω where Zi is the impedance at any given time point and Z0 is the baseline impedance measured at the start of each experiment ([Kho et al., 2015]).
Assays were performed at 37°C and 5% CO2 in 96-well PET E-plates in a total volume of 100 µl per well. Prior to cell seeding, the baseline impedance (Z0) was measured in the recording station in 40 µl (two compound additions) or 45 µl (one compound addition) medium in the presence (+) or absence (−) of 1 μg/ml dox. […]
On the day of the experiment, JumpIn-EAAT cells grown to 70–80% confluence were trypsinized (0.25% trypsin in PBS/EDTA), counted and seeded in the E-plate in a volume of 50 μl at 60,000 cells/well. […] Cell growth was recorded overnight for 22 h. […] After stimulation the impedance was measured for at least 2 h. […]
Experimental data was recorded using RTCA Software v2.0 or v2.1.1 (ACEA Biosciences). […]

N[C@@H](CCC(=O)O)C(=O)O [L-glutamate, L-glutamic acid monosodium salt monohydrate]
EC50 [1]: 501 µM
Substrate pEC50 ± SEM (AUC = 0–15 min) ([2]; no inhibitor, net AUC 0–15 min): <3.0
Substrate pEC50 ± SEM (AUC = 0–15 min) ([2]; pretreated 1 h with 10 µM UCPH-101, net AUC 0–15 min): 3.7 ± 0.2
Substrate pEC50 ± SEM (AUC = 0–120 min) ([2]; JumpIn-EAAT1-mGluR2, −dox, no inhibitor, net AUC 0–120 min): 4.3 ± 0.1
Response in dox-induced vs non-induced cells [3]: significantly higher
